Laboratory results taken from US11730937B2, “Separable microneedle arrays for sustained release of drug” (Georgia Tech Research Corporation, priority 2017, dated 2023).

Experiment: in vivo
Conditions: female, Sprague Dawley, rat, iv, 0.006 mg
Protocol: Specifically, LNG pharmacokinetics were evaluated in adult female Sprague Dawley rats (200±12 g) by applying a LNG-loaded microneedle patch to each rat while under isoflurane anesthesia. The rats' dorsal skin was shaved before application of microneedle patches, taking care not to damage skin during shaving.
Plasma was then separated by centrifuging blood samples at 2000 g for 15 minutes at 4° C., and underwent subsequent analysis by enzyme-linked immunosorbent assay (ELISA, Thermo Fisher Scientific) following the manufacturer's instruction to determine LNG concentration.
Pharmacokinetic parameters were calculated using non-compartmental pharmacokinetic analysis. […] Bioavailability of LNG delivered from microneedles was calculated from the ratio of dose-normalized AUC values after microneedle patch administration and intravenous LNG injection.

- AUC(0-inf): 17.2 ± 0.3 ng·h/mL
- AUC(0-t): 17.2 ± 0.3 ng·h/mL
- half-life: 20.7 ± 0.6 h
SMILES: C#C[C@]1(O)CC[C@H]2[C@@H]3CCC4=CC(=O)CC[C@@H]4[C@H]3CC[C@@]21CC [LNG, levonorgestrel]
